Experimental data from PMC6342991, “Effects of point mutations in the binding pocket of the mouse major urinary protein MUP20 on ligand affinity and specificity” (Scientific Reports, 2019).
Residue numbers refer to the chain shown, from its start. Several values for one entry are separate records, joined by “and”; a condition that tells them apart may be missing. Equal entries are not always repeated. Entries after “also recorded” stand apart in the source; their conditions may differ. Where two headings read alike, the source gives them in different places.

Legend:
[1] = target: T1, MUP20E137K (Mus musculus, UniProt Q5FW60, E137K); assay: Fluorescence competitive binding assay with 1-NPN, MUP20 E137K
T1 construct: 6xHis (N); made in house; host or cells: E. coli BL21(DE3), pET5b
T1 sequence (Q5FW60 20-181 E137K): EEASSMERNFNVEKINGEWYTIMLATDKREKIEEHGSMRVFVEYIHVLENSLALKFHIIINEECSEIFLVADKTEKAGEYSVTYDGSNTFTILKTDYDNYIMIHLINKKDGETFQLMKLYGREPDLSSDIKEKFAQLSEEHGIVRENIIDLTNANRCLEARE
Procedure: (§1) Fluorescence competitive binding assays: Fluorescence-competitive binding assays were carried out using the fluorescent probe N-phenyl-1-naphthylamine (1-NPN), as described[39],[40]. A binding curve was constructed and the dissociation constant of the probe (KD) was calculated.
(§2) The binding analyses assumed that the protein had 100% activity and that the stoichiometry of binding was 1:1 at saturation. The affinity of various volatile ligands was measured in competitive binding assays.
(§3) The change in fluorescence was recorded after adding increasing concentrations of ligand. Competitor concentrations causing a decay of fluorescence to half-maximal intensity were determined as IC50 and the dissociation constant for the test ligands (expressed as Kd) was calculated using the following formula:1 Kd=[IC50]/1+[Probe]/KD where [Probe] is the free concentration of the fluorescent probe and KD is the dissociation constant of the complex Protein/Probe.

[2] = target: T2, MUP20N107L (Mus musculus, UniProt Q5FW60, N107L); assay: Fluorescence competitive binding assay with 1-NPN, MUP20 N107L
T2 construct: 6xHis (N); made in house; host or cells: E. coli BL21(DE3), pET5b
T2 sequence (Q5FW60 20-181 N107L): T1 sequence (Q5FW60 20-181 E137K) with N88L, K118E
Procedure: as §1, §2, §3

[3] = target: T3, MUP20V59T (Mus musculus, UniProt Q5FW60, V59T); assay: Fluorescence competitive binding assay with 1-NPN, MUP20 V59T
T3 construct: 6xHis (N); made in house; host or cells: E. coli BL21(DE3), pET5b
T3 sequence (Q5FW60 20-181 V59T): T1 sequence (Q5FW60 20-181 E137K) with V40T, K118E
Procedure: as §1, §2, §3

[4] = target: T4, MUP20Y103R (Mus musculus, UniProt Q5FW60, Y103R); assay: Fluorescence competitive binding assay with 1-NPN, MUP20 Y103R
T4 construct: 6xHis (N); made in house; host or cells: E. coli BL21(DE3), pET5b
T4 sequence (Q5FW60 20-181 Y103R): T1 sequence (Q5FW60 20-181 E137K) with Y84R, K118E
Procedure: as §1, §2, §3

[5] = target: T5, wild type MUP20 (Mus musculus, UniProt Q5FW60); assay: Fluorescence competitive binding assay with 1-NPN, wild type MUP20; settings: 1-NPN displacement, 50 mM Tris-HCl pH 7.4, 25 °C
T5 construct: 6xHis (N); made in house; host or cells: E. coli BL21(DE3), pET5b
T5 sequence (Q5FW60 20-181): T1 sequence (Q5FW60 20-181 E137K) with K118E
Procedure: as §1, §2, §3

[6] = target: T6, MUP20Y103D (Mus musculus, UniProt Q5FW60, Y103D); assay: Fluorescence competitive binding assay with 1-NPN, MUP20 Y103D
T6 construct: 6xHis (N); made in house; host or cells: E. coli BL21(DE3), pET5b
T6 sequence (Q5FW60 20-181 Y103D): T1 sequence (Q5FW60 20-181 E137K) with Y84D, K118E
Procedure: as §1, §2, §3

[7] = target: T7, MUP20L88Q (Mus musculus, UniProt Q5FW60, L88Q); assay: Fluorescence competitive binding assay with 1-NPN, MUP20 L88Q; settings: 1-NPN displacement, 50 mM Tris-HCl pH 7.4, 25 °C
T7 construct: 6xHis (N); made in house; host or cells: E. coli BL21(DE3), pET5b
T7 sequence (Q5FW60 20-181 L88Q): T1 sequence (Q5FW60 20-181 E137K) with L69Q, K118E
Procedure: as §1
The affinity of various volatile ligands was measured in competitive binding assays.
as §3

[8] = target: T8, MUP20L124V (Mus musculus, UniProt Q5FW60, L124V); assay: Fluorescence competitive binding assay with 1-NPN, MUP20 L124V
T8 construct: 6xHis (N); made in house; host or cells: E. coli BL21(DE3), pET5b
T8 sequence (Q5FW60 20-181 L124V): T1 sequence (Q5FW60 20-181 E137K) with L105V, K118E
Procedure: as §1, §2, §3

[9] = target: T9, MUP20 mutant L88Q (Mus musculus, UniProt Q5FW60, L88Q); assay: Isothermal titration calorimetry, MUP20 L88Q; format: binding; settings: for Kd: one-site binding model, 25 °C, 50 mM Tris HCl pH 7.4, read-out: Equilibrium dissociation constant Kd (ITC), L88Q
T9 construct: 6xHis (N); made in house; host or cells: E. coli BL21(DE3), pET5b
T9 sequence (Q5FW60 20-181 L88Q): T1 sequence (Q5FW60 20-181 E137K) with L69Q, K118E
Procedure: (§4) ITC titrations were performed at 25 ± 0.1 °C in 50 mM Tris HCl pH 7.4, using a MicroCal VP-ITC instrument. To a MUP solution (1.7 ml, 25 µM) were sequentially added 25 aliquots (10 μl each) of a ligand stock solution (500 μM), with a delay of 4 min after each injection with continuous stirring of the solution (at 307 r.p.m.) in the sample cell. Before analysis, protein samples were dialyzed overnight in the same buffer, using a Slide-A-Lyzer (3.5-kDa cutoff) from ThermoFisher Scientific (Waltham, MA, USA), and thoroughly degassed. The heat of dilution was determined in control experiments by injecting aliquots (10 µl) of a ligand stock solution (500 µM) into buffer and this was subtracted from the integrated binding isotherm prior to curve fitting. Each injection generated a heat-burst curve (μcal s^−1) versus time (min). The area under each peak was determined by integration using Origin 7.5 software (Microcal, Inc.) to give the heat associated with the injection. The heat exchanged per mole of injectant was plotted against the ligand:protein molar ratio. The binding constants (Ka) and stoichiometry (N) parameters of the binding process were obtained by fitting the integrated heats of binding to the one-site binding model using the MicroCal ITC Data Analysis software.

[10] = target: T5, wild type MUP20; assay: Isothermal titration calorimetry, wild type MUP20; format: binding; settings: for Kd: one-site binding model, 25 °C, 50 mM Tris HCl pH 7.4, read-out: Equilibrium dissociation constant Kd (ITC), WT
Procedure: as §4

[11] = target: T10, MUP20 mutant L124V (Mus musculus, UniProt Q5FW60, L124V); assay: Isothermal titration calorimetry, MUP20 L124V; format: binding; settings: for Drop of affinity of L124V compared to wild-type MUP20 (ITC): decrease in affinity; for Kd: one-site binding model, 25 °C, 50 mM Tris HCl pH 7.4, read-out: Equilibrium dissociation constant Kd (ITC), L124V
T10 construct: 6xHis (N); made in house; host or cells: E. coli BL21(DE3), pET5b
T10 sequence (Q5FW60 20-181 L124V): T1 sequence (Q5FW60 20-181 E137K) with L105V, K118E
Procedure: as §4

[12] = target: T11, MUP20 mutant Y103R (Mus musculus, UniProt Q5FW60, Y103R); assay: Isothermal titration calorimetry, MUP20 Y103R; format: binding; settings: 25 °C, 50 mM Tris HCl pH 7.4
T11 construct: 6xHis (N); made in house; host or cells: E. coli BL21(DE3), pET5b
T11 sequence (Q5FW60 20-181 Y103R): T1 sequence (Q5FW60 20-181 E137K) with Y84R, K118E
Procedure: as §4

[13] = target: T7, MUP20L88Q; set-up: method as in Scorsone et al., IEEE Sensors Journal 2016, 16, 6543, Tab. 1; settings: ref Scorsone et al., IEEE Sensors Journal 2016, 16, 6543, Tab. 1; read-out: Kd, L88Q (starred value); cited from earlier work
[14] = target: T5, wild type MUP20; set-up: method as in Scorsone et al., IEEE Sensors Journal 2016, 16, 6543, Tab. 1; settings: ref Scorsone et al., IEEE Sensors Journal 2016, 16, 6543, Tab. 1; read-out: Kd, WT (starred value); cited from earlier work
[15] = target: T8, MUP20L124V; set-up: method as in Scorsone et al., IEEE Sensors Journal 2016, 16, 6543, Tab. 1; settings: ref Scorsone et al., IEEE Sensors Journal 2016, 16, 6543, Tab. 1; read-out: Kd, L124V (starred value); cited from earlier work
[16] = target: T6, MUP20Y103D; set-up: method as in Scorsone et al., IEEE Sensors Journal 2016, 16, 6543, Tab. 1; settings: ref Scorsone et al., IEEE Sensors Journal 2016, 16, 6543, Tab. 1; read-out: Kd, Y103D (starred value); cited from earlier work
[17] = 1-NPN displacement, 50 mM Tris-HCl pH 7.4, 25 °C, read-out: Measured Kd, E137K
[18] = 1-NPN displacement, 50 mM Tris-HCl pH 7.4, 25 °C, read-out: Measured Kd, N107L
[19] = 1-NPN displacement, 50 mM Tris-HCl pH 7.4, 25 °C, read-out: Measured Kd, V59T
[20] = 1-NPN displacement, 50 mM Tris-HCl pH 7.4, 25 °C, read-out: Measured Kd, Y103R
[21] = 1-NPN displacement, 50 mM Tris-HCl pH 7.4, 25 °C, read-out: Measured Kd, Y103D
[22] = 1-NPN displacement, 50 mM Tris-HCl pH 7.4, 25 °C, read-out: Measured Kd, L124V

Cc1ccc(O)c(C)c1 [2,4-DMP, 2,4-dimethylphenol]
Kd [1]: 4.05 µM | Kd [2]: 1.99 µM | Kd [3]: 1.44 µM | Kd [4]: 11.9 µM | Kd ([5]; Measured Kd, WT): 4.24 µM | Kd [6]: 4.68 µM | Kd ([7]; Measured Kd, L88Q): 5.08 µM | Kd [8]: 1.3 µM

C=CC(C)(O)CCC=C(C)C (stereo not drawn) [LIN, 3,7-dimethylocta-1,6-dien-3-ol]
Kd [1, 17]: 1.85 µM | Kd [2, 18]: 1.37 µM | Kd [3, 19]: 1.6 µM | Kd [4, 20]: 5.93 µM | Kd ([5]; read-out: Measured Kd, WT): 2.82 µM | Kd [6, 21]: 2.17 µM | Kd ([7]; read-out: Measured Kd, L88Q): 2.21 µM | Kd [8, 22]: 0.29 µM

COc1nccnc1CC(C)C [PYR, 2-isobutyl-3-methoxypyrazine]
Kd [1, 17]: 1.52 µM | Kd [2, 18]: 1.4 µM | Change of affinity of L88Q compared to wild-type MUP20 (ITC) ([9]; number = increase in affinity): did not appreciably affect; also recorded: does not alter | Kd [9]: 2.4 µM | Affinity for wild type MUP20 relative to MEN (ITC) ([10]; higher affinity than MEN): > 40 fold | Kd [10]: 1.6 µM | Drop of affinity of L124V compared to wild-type MUP20 (ITC) [11]: 1300 fold | Kd [11]: 2100 ± 200 µM | Kd [3, 19]: 1.93 µM | Binding strength to Y103R mutant (ITC) [12]: barely detectable | Kd [4, 20]: 0.74 µM | Kd ([5]; read-out: Measured Kd, WT): 1.29 µM and 1.3 µM | Kd [6, 21]: 0.84 µM | Kd ([7]; read-out: Measured Kd, L88Q): 1.39 µM and 1.4 µM | Kd [8, 22]: 0.07 µM

CC1=CC(=O)c2ccccc2C1=O [MEN, methylnapthalene-1,4-dione]
Kd [1, 17]: 2.14 µM | Kd [2, 18]: 1.23 µM | Kd [9]: 13 ± 6 µM | Kd [10]: 76 ± 19 µM | Kd [13]: 1.31 µM | Drop of affinity of L124V compared to wild-type MUP20 (ITC) [11]: 25 fold | Kd [11]: 1900 ± 100 µM | Kd [3, 19]: 1.85 µM | Binding strength to Y103R mutant (ITC) [12]: barely detectable | Kd [14]: 0.61 µM | Kd [15]: 0.07 µM | Kd [16]: 0.82 µM

CCCCCCC(CO)CCCC (stereo not drawn) [OCT, 2-butyl-1-octanol]
Kd [1, 17]: 3.2 µM | Kd [2, 18]: 2.67 µM | Kd [3, 19]: 1.54 µM | Kd [4, 20]: 1.88 µM | Kd ([5]; read-out: Measured Kd, WT): 0.78 µM | Kd [6, 21]: 0.92 µM | Kd ([7]; read-out: Measured Kd, L88Q): 1.45 µM | Kd [8, 22]: 0.36 µM
